Assay [1] deals with AD constricted rabbit aorta. In words: Relaxing effects on vascular smooth muscle constricted by adrenaline hydrochloride (AD) in vitro. The conditions noted are these: Oryctolagus cuniculus; relaxation of rabbit aorta constricted by adrenaline (10^−5 mol/L); mean±SEM, n=5. On the procedure: Adrenaline hydrochloride (AD) (10^−5 mol/L) was added into a bath tube to induce constriction, when maximal constriction was achieved, the sample was completely flushed, K-H solution was changed for every 20 min. Contents in the tube was balanced for 60 min, when baseline recovered to be stable, the […] was added at the same concentration to induce constriction. When the later maximal constriction response was basically consistent with the former one, the prepared compound solutions were subsequently added, including compound II-1 to II-60 solutions (1×10^−8-1×10^−3 mol/L), compound II-84 to II-123 solutions (1×10^−10-1×10^−2 mol/L) and compound II-124 to II-157 solutions (1×10^−10˜1×10^−3 mol/L), to record the waveforms. Relaxing percentage of the compound was used as Y axis, maximal relaxation response was 100%, negative logarithm of different concentration was used as X axis, to draw dose effect curve (expressed in mean±SEM ( ? ), n=5). Compounds II-2 and II-3 had the most obvious relaxing effects (FIG. 1 and FIG. 8).

Assay [2] deals with high kalium concentration constricted rabbit aorta. Description: Relaxing effects on vascular smooth muscle constricted by high kalium concentration in vitro. Particulars: Oryctolagus cuniculus, relaxation of rabbit aorta constricted by high kalium solution (K+ 60 mmol/L); mean±SEM, n=5. On the procedure: Adrenaline hydrochloride (AD) (10^−5 mol/L) was added into a bath tube to induce constriction, when maximal constriction was achieved, the sample was completely flushed, K-H solution was changed for every 20 min. Contents in the tube was balanced for 60 min, when baseline recovered to be stable, K-H solution in the bath tube was replaced with high kalium concentration solution to induce constriction. When the later maximal constriction response was basically consistent with the former one, the prepared compound solutions were subsequently added, including compound II-1 to II-60 solutions (1×10^−8-1×10^−3 mol/L), compound II-84 to II-123 solutions (1×10^−10-1×10^−2 mol/L) and compound II-124 to II-157 solutions (1×10^−10-1×10^−3 mol/L), to record the waveforms. Relaxing percentage of the compound was used as Y axis, maximal relaxation response was 100%, negative logarithm of different concentration was used as X axis, to draw dose effect curve (expressed in mean±SEM ( ? ), n=5). Compounds II-2 and II-3 had the most obvious relaxing effects (FIG. 2 and FIG. 9).

Experimental findings from patent US9415047B2, “Use of benzo five-membered nitrogen heterocyclic piperazine or piperidine derivatives” (Liaoning Emmy Biological Pharmaceutical Co., Ltd., priority 2012, dated 2016) are described below.

What is called EC50 is the concentration at which the effect is half-maximal.

For the compound `Fc1ccc2c(N3CCN(CCCOn4nnc5ccc(F)cc54)CC3)nsc2c1` [II-53, 6-fluoro-1-(4-(4-(3-(6-fluoro-benzisothiazolyl))piperazine-1-yl)propoxyl)-1H-benzotriazole], the results for the EC50 in assay [1] and in assay [2] were 52.5 µM and 132 µM, respectively.
For `c1cnc(N2CCN(CCCCn3nnc4ccccc43)CC2)nc1` [II-45, 1-(4-(4-(2-pyrimidinyl)piperazine-1-yl)butyl)-1H-benzotriazole], in that order: 46.8 µM and 81.3 µM.
Taken in the same sequence, the figures for `Cc1nc2ccccc2n1CCCN1CCN(c2cccc(F)c2)CC1` [II-9, 2-methyl-1-(3-(4-(3-fluorophenyl)piperazine-1-yl)propyl)-1H-benzimidazole] were 42.7 µM and 52.5 µM.
Take `Clc1cccc(N2CCN(CCCCn3cnc4ccccc43)CC2)c1` [II-1, 1-(4-(4-(3-chlorophenyl)piperazine-1-yl)butyl)-1H-benzimidazole]: the EC50 is 9.33 µM in assay [1] and 8.91 µM in assay [2].
Taken in the same sequence, the figures for `c1ccc2c(c1)nnn2CCCCN1CCN(c2noc3ccccc23)CC1` [II-35, 3-(4-(4-(1H-benzotriazole-1-yl)butyl)piperazine-1-yl)benzisoxazole] were 12.9 µM and 32.4 µM.
For `N#Cc1ccc2ccn(CCCCN3CCN(c4cccc(Cl)c4)CC3)c2c1` [II-58, 6-cyano-1-(4-(4-(3-chlorophenyl)piperazine-1-yl)butyl)-1H-indole], in that order: 67.6 µM and 178 µM.
Regarding `Fc1ccc2c(N3CCN(CCCCn4cnc5ccccc54)CC3)noc2c1` [II-18, 1-(4-(4-(3-(6-fluorobenzisoxazolyl))piperazine-1-yl)butyl)-1H-benzimidazole], the concentration for a half-maximal effect (EC50) in assay [1] was 13.8 µM; in assay [2], 18.2 µM.
Regarding `c1ccc2c(c1)nnn2CCCCN1CCN(c2ccncc2)CC1` [II-44, 1-(4-(4-(4-pyridyl)piperazine-1-yl)butyl)-1H-benzotriazole], the concentration giving a half-maximal response (EC50) was 70.8 µM in assay [1] and 186 µM in assay [2].
In the case of `COc1ccc2nnn(CCCN3CCC(c4n[nH]c5cc(F)ccc45)CC3)c2c1` [II-150, N-(3-(6-methoxylbenzotriazolyl)propyl)-4-(3-(6-fluorobenzopyrazol))piperidine], the concentration for a half-maximal effect (EC50) in assay [1] was 74.1 µM; in assay [2], 234 µM.
For `Clc1cccc(N2CCN(CCCCn3cnc4ccccc43)CC2)c1Cl` [II-3, 1-(4-(4-(2,3-dichlorophenyl)piperazine-1-yl)butyl)-1H-benzimidazole], in that order: 0.977 µM and 3.24 µM.
Taken in the same sequence, the figures for `N#Cc1ccc2ncn(CCCCN3CCN(c4cccc(C(F)(F)F)c4)CC3)c2c1` [II-26, 6-cyano-1-(4-(4-(3-trifluoromethylphenyl)piperazine-1-yl)butyl)-1H-benzimidazole] were 64.6 µM and 102 µM.
Taken in the same sequence, the figures for `N#Cc1cccc(N2CCN(CCCCn3cnc4ccccc43)CC2)c1` [II-10, 1-(4-(4-(3-cyanophenyl)piperazine-1-yl)butyl)-1H-benzimidazole] were 55 µM and 110 µM.
As to `Fc1ccc2nnn(CCCCN3CCN(c4cccc(C(F)(F)F)c4)CC3)c2c1` [II-32, 6-fluoro-1-(4-(4-(3-trifluoromethylphenyl)piperazine-1-yl)butyl)-1H-benzotriazole], the concentration giving a half-maximal response (EC50) in assay [1] is 3.89 µM; in assay [2], 24.5 µM.
Taken in the same sequence, the figures for `Fc1ccc2ncn(CCCCN3CCN(c4cccc(C(F)(F)F)c4)CC3)c2c1` [II-6, 6-fluoro-1-(4-(4-(3-trifluoromethylphenyl)piperazine-1-yl)butyl)-1H-benzimidazole] were 23.4 µM and 38.9 µM.
For `Fc1ccc2c(C3CCN(CCCCn4nnc5ccccc54)CC3)noc2c1` [II-144, N-(4-(1-benzotriazolyl)butyl)-4-(3-(6-fluorobenzisoxazolyl))piperidine], the EC50 was 1.1 µM in assay [1] and 110 µM in assay [2].
